According to patent US20190010167A1, “INHIBITORS OF THE MENIN-MLL INTERACTION” (Vitae Pharmaceuticals, Inc., priority 2015, published 2019):

Each compound was assayed against T1, wild-type menin / MLL-AF9 fusion protein (Homo sapiens, UniProt O00255) (assay: AlphaLISA menin/MLL binding assay, wild-type menin (Assay 1)). Details: biotinylated wild-type menin 5 nM, MLL-AF9-FLAG lysate.
T1 construct: made in house; host or cells: E. coli (menin); HEK293 cleared lysate (MLL-AF9-FLAG)
T1 sequence (O00255 1-610): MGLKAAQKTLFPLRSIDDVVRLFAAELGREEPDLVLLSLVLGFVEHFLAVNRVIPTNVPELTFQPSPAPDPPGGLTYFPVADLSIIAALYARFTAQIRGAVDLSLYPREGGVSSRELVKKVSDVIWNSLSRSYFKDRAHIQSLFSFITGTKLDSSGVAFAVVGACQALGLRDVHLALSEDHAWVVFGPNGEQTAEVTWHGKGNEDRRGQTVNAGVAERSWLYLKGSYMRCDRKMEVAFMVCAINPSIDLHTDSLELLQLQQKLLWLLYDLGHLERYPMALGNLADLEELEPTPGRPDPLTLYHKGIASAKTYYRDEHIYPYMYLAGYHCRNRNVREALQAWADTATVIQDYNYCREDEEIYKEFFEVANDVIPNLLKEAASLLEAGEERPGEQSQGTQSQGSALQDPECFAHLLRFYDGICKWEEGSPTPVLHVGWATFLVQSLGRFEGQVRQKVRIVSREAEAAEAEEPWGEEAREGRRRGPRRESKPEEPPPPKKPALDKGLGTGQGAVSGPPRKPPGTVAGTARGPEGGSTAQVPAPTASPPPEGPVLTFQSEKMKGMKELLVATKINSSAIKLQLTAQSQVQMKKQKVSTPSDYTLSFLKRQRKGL
Method: Potencies of inhibitor compounds against menin/MLL binding were assessed by AlphaLISA assay using biotinylated (1) wild-type menin or (2) mutated menin (described in Nature (2012) Vol. 482, pp. 542-548) and MLL-AF9 fusion protein bearing a FLAG epitope at its C-terminus. Menin proteins were expressed in E. coli and covalently modified with biotin using EZ-Link™ Sulfo-NHS-Biotin (ThermoFisher Cat. No. 21217) according to manufacturer's protocol. MLL1-1,396 fused to AF91-92 and the C-terminal FLAG peptide was expressed in HEK293 cells and used as a lysate cleared at 21,000×g for 10 min.
Compounds (2 μL of solutions in DMSO) were dispensed in white 96-well half-area plates (Corning Cat. No. 3693) and incubated for 30 min at RT with 5 nM biotinylated menin and appropriate amount of MLL-AF9-FLAG lysate in 40 μL of 50 mM Tris-HCl buffer pH 7.4 containing 5% (v/v) DMSO, 50 mM NaCl, 0.01% (w/v) bovine serum albumin (BSA) and 1 mM DTT. To this incubation mixture, 40 μl of AlphaLISA anti-FLAG acceptor (PerkinElmer Cat. No. AL112C) and streptavidin donor (PerkinElmer Cat. No. 6760002) beads (10 μg/mL each) was added and incubation continued at RT for 60 min. Alpha (amplified luminescent proximity homogeneous assay) signal was measured on an Envision multi-label plate reader at the end of the incubation. All steps were conducted under dim fluorescent light.
These percent inhibition values were regressed against compound concentrations in the assay using four parameter logit non-linear curve fitting (XLFit, IDBS). The IC50 values were derived from the curve fitting as inflection points on the dose-response curves and are set out in Table 1 below.

| IC50 | SMILES |
| --- | --- |
| 0.1 to 1 µM | FC(F)(F)Cc1cc2c(N3CCC4(CC3)CN(CC3CC(F)(F)C3)C4)ncnc2s1 [Example 14, 4-(2-((3,3-difluorocyclobutyl)methyl)-2,7-diazaspiro[3.5]nonan-7-yl)-6-(2,2,2-trifluoroethyl)thieno[2,3-d]pyrimidine] |
| ≥ 1 µM | CC(C)(O)CN1CC2(CCN(c3ncnc4sc(CC(F)(F)F)cc34)CC2)C1 [Example 15, 2-methyl-1-(7-(6-(2,2,2-trifluoroethyl)thieno[2,3-d]pyrimidin-4-yl)-2,7-diazaspiro[3.5]nonan-2-yl)propan-2-ol] |
| ≥ 1 µM | CC(C)(F)CN1CC2(CCN(c3ncnc4sc(CC(F)(F)F)cc34)CC2)C1 [Example 16, 4-(2-(2-fluoro-2-methylpropyl)-2,7-diazaspiro[3.5]nonan-7-yl)-6-(2,2,2-trifluoroethyl)thieno[2,3-d]pyrimidine] |
| ≥ 1 µM | CC(C)(N)CC(=O)N1CC2(CCN(c3ncnc4sc(CC(F)(F)F)cc34)CC2)C1 [Example 17, 3-amino-3-methyl-1-(7-(6-(2,2,2-trifluoroethyl)thieno[2,3-d]pyrimidin-4-yl)-2,7-diazaspiro[3.5]nonan-2-yl)butan-1-one] |
| 0.1 to 1 µM | FC(F)(F)Cc1cc2c(N3CCC4(CC3)CN(CC3CCOCC3)C4)ncnc2s1 [Example 19, 4-(2-((tetrahydro-2H-pyran-4-yl)methyl)-2,7-diazaspiro[3.5]nonan-7-yl)-6-(2,2,2-trifluoroethyl)thieno[2,3-d]pyrimidine] |
| 0.1 to 1 µM | Cc1c(CN2CC3(CCN(c4ncnc5sc(CC(F)(F)F)cc45)CC3)C2)ccc2[nH]c(C#N)cc12 [Example 21, 4-methyl-5-((7-(6-(2,2,2-trifluoroethyl)thieno[2,3-d]pyrimidin-4-yl)-2,7-diazaspiro[3.5]nonan-2-yl)methyl)-1H-indole-2-carbonitrile] |
| 0.1 to 1 µM | FC(F)(F)Cc1cc2c(N3CCC4(CCN(CC5CCOC5)C4)C3)ncnc2s1 (stereo not shown) [Example 31, 4-(7-((Tetrahydrofuran-3-yl)methyl)-2,7-diazaspiro[4.4]nonan-2-yl)-6-(2,2,2-trifluoroethyl)thieno[2,3-d]pyrimidine] |
| 0.1 to 1 µM | FC(F)(F)Cc1cc2c(N3CCC4(CCN(CC5CCC(F)(F)CC5)C4)C3)ncnc2s1 (stereo not shown) [Example 32, 4-(7-((4,4-difluorocyclohexyl)methyl)-2,7-diazaspiro[4.4]nonan-2-yl)-6-(2,2,2-trifluoroethyl)thieno[2,3-d]pyrimidine] |
| 0.1 to 1 µM | N#Cc1cccc(CN2CCC3(CCN(c4ncnc5sc(CC(F)(F)F)cc45)C3)C2)c1 (stereo not shown) [Example 35, 3-((7-(6-(2,2,2-Trifluoroethyl)thieno[2,3-d]pyrimidin-4-yl)-2,7-diazaspiro[4.4]nonan-2-yl)methyl)benzonitrile] |
| 0.1 to 1 µM | CS(=O)(=O)c1ccc(CN2CCC3(CCN(c4ncnc5sc(CC(F)(F)F)cc45)C3)C2)c(Cl)c1 (stereo not shown) [Example 36, 4-(7-(2-chloro-4-(methylsulfonyl)benzyl)-2,7-diazaspiro[4.4]nonan-2-yl)-6-(2,2,2-trifluoroethyl)thieno[2,3-d]pyrimidine] |
| 0.1 to 1 µM | FC(F)(F)Cc1cc2c(N3CCC4(CCN(C[C@H]5CC[C@H](C(F)(F)F)CC5)C4)C3)ncnc2s1 (stereo partly shown) [Example 37, 6-(2,2,2-Trifluoroethyl)-4-(7-(((1r,4r)-4-(trifluoromethyl)cyclohexyl)methyl)-2,7-diazaspiro[4.4]nonan-2-yl)thieno[2,3-d]pyrimidine] |
| 0.1 to 1 µM | CC(=O)N[C@H]1CC[C@H](CN2CCC3(CCN(c4ncnc5sc(CC(F)(F)F)cc45)C3)C2)CC1 (stereo partly shown) [Example 47, N-((1r,4r)-4-((7-(6-(2,2,2-trifluoroethyl)thieno[2,3-d]pyrimidin-4-yl)-2,7-diazaspiro[4.4]nonan-2-yl)methyl)cyclohexyl)acetamide] |
| 0.1 to 1 µM | CC(=O)N[C@H]1CC[C@@H](CN2CCC3(CCN(c4ncnc5sc(CC(F)(F)F)cc45)C3)C2)CC1 (stereo partly shown) [Example 50, N-((1s,4s)-4-((7-(6-(2,2,2-Trifluoroethyl)thieno[2,3-d]pyrimidin-4-yl)-2,7-diazaspiro[4.4]nonan-2-yl)methyl)cyclohexyl)acetamide] |
| 0.1 to 1 µM | COC(=O)N[C@H]1CC[C@@H](CN2CCC3(CCN(c4ncnc5sc(CC(F)(F)F)cc45)C3)C2)CC1 (stereo partly shown) [Example 51, Methyl ((1s,4s)-4-((7-(6-(2,2,2-trifluoroethyl)thieno[2,3-d]pyrimidin-4-yl)-2,7-diazaspiro[4.4]nonan-2-yl)methyl)cyclohexyl)carbamate] |
| < 0.1 µM | COC(=O)Nc1cccc(CN2CCC3(CCN(c4ncnc5sc(CC(F)(F)F)cc45)C3)C2)c1 (stereo not shown) [Example 53, methyl (3-((7-(6-(2,2,2-trifluoroethyl)thieno[2,3-d]pyrimidin-4-yl)-2,7-diazaspiro[4.4]nonan-2-yl)methyl)phenyl)carbamate] |
| 0.1 to 1 µM | O=C(C1CCCNC1)N1CCC2(CCN(c3ncnc4sc(CC(F)(F)F)cc34)C2)C1 (stereo not shown) [Example 55, piperidin-3-yl(7-(6-(2,2,2-trifluoroethyl)thieno[2,3-d]pyrimidin-4-yl)-2,7-diazaspiro[4.4]nonan-2-yl)methanone] |
| 0.1 to 1 µM | O=C(C1CCCCN1)N1CCC2(CCN(c3ncnc4sc(CC(F)(F)F)cc34)C2)C1 (stereo not shown) [Example 56, piperidin-2-yl(7-(6-(2,2,2-trifluoroethyl)thieno[2,3-d]pyrimidin-4-yl)-2,7-diazaspiro[4.4]nonan-2-yl)methanone] |
| 0.1 to 1 µM | O=C([C@@H]1CCCN1)N1CCC2(CCN(c3ncnc4sc(CC(F)(F)F)cc34)C2)C1 (stereo partly shown) [Example 57, 4-(7-prolyl-2,7-diazaspiro[4.4]nonan-2-yl)-6-(2,2,2-trifluoroethyl)thieno[2,3-d]pyrimidine] |
| ≥ 1 µM | O=C1N(Cc2ccccc2)CCC12CCN(c1ncnc3sc(CC(F)(F)F)cc13)C2 (stereo not shown) [Example 59, 2-benzyl-7-(6-(2,2,2-trifluoroethyl)thieno[2,3-d]pyrimidin-4-yl)-2,7-diazaspiro[4.4]nonan-1-one] |
| 0.1 to 1 µM | CS(=O)(=O)c1ccc(CC(=O)N2CC3(C2)CN(c2ncnc4sc(CC(F)(F)F)cc24)C3)cc1 [Example 62, 2-(4-(methylsulfonyl)phenyl)-1-(6-(6-(2,2,2-trifluoroethyl)thieno[2,3-d]pyrimidin-4-yl)-2,6-diazaspiro[3.3]heptan-2-yl)ethan-1-one] |
| 0.1 to 1 µM | CC1(C)CCC(CN2CC3(C2)CN(c2ncnc4sc(CC(F)(F)F)cc24)C3)CC1 [Example 64, 4-(6-((4,4-dimethylcyclohexyl)methyl)-2,6-diazaspiro[3.3]heptan-2-yl)-6-(2,2,2-trifluoroethyl)thieno[2,3-d]pyrimidine] |
| 0.1 to 1 µM | Cc1c(CN2CC3(C2)CN(c2ncnc4sc(CC(F)(F)F)cc24)C3)ccc2[nH]c(C#N)cc12 [Example 67, 4-methyl-5-((6-(6-(2,2,2-trifluoroethyl)thieno[2,3-d]pyrimidin-4-yl)-2,6-diazaspiro[3.3]heptan-2-yl)methyl)-1H-indole-2-carbonitrile] |
| 0.1 to 1 µM | FC(F)(F)Cc1cc2c(N3CC4(CN(CC5CCC(F)(F)CC5)C4)C3)ncnc2s1 [Example 70, 4-(6-((4,4-difluorocyclohexyl)methyl)-2,6-diazaspiro[3.3]heptan-2-yl)-6-(2,2,2-trifluoroethyl)thieno[2,3-d]pyrimidine] |
| 0.1 to 1 µM | CCS(=O)(=O)N[C@H]1CC[C@H](CN2CC3(C2)CN(c2ncnc4sc(CC(F)(F)F)cc24)C3)CC1 [Example 71, N-((1r,4r)-4-((6-(6-(2,2,2-trifluoroethyl)thieno[2,3-d]pyrimidin-4-yl)-2,6-diazaspiro[3.3]heptan-2-yl)methyl)cyclohexyl)ethanesulfonamide] |
| 0.1 to 1 µM | O=S(=O)(N[C@H]1CC[C@H](CN2CC3(C2)CN(c2ncnc4sc(CC(F)(F)F)cc24)C3)CC1)C1CC1 [Example 72, N-((1r,4r)-4-((6-(6-(2,2,2-trifluoroethyl)thieno[2,3-d]pyrimidin-4-yl)-2,6-diazaspiro[3.3]heptan-2-yl)methyl)cyclohexyl)cyclopropanesulfonamide] |
